Assays:
[1] = tested on: NOMO1; test: Cellular assay (ATPlite cell viability), NOMO1; assay type: cell-based; conditions: NOMO1 cell line
Experimental: (§1) The compounds of the invention are also evaluated in the BRD4 dependant cell line for the cellular activity to generate cellular IC50 values.
(§2) Cells (e.g., BRD4 dependant cells) were counted and adjusted to 60,000 cells/mL. Using a Biotek EL406, 50 μL, of the cells in media were distributed into 384 well white plates from Thermo. Immediately after plating, compounds of the invention in DMSO were distributed to plates. For large plate sets, cells were returned to a 37° C. incubator while not in use. The compounds were added to plates using a 100 nL 384 well pin transfer manifold on a Janus workstation. Stocks were arrayed in 10 point quadruplicate dose response in DMSO stock in 384-well Greiner compound plates. After addition of the compounds, plates were incubated for three days in a 37° C. incubator. Cell viability was read out using ATPlite from Perkin Elmer. Plates were removed from the incubator and brought to room temperature prior to use. Lyophilized powder was resuspended in lysis buffer and diluted 1:2 with DI water. 25 μL of this solution was added to each well using the Biotek liquid handler. Plates were sealed with adherent aluminum seals prior to vortexing and spinning down at 1000 g for 1 minute. Plates were incubated for 15 minutes at room temperature before signal was read on an Envision Plate Reader.

[2] = tested on: Kasumi-1; test: Cellular assay (ATPlite cell viability), Kasumi-1; assay type: cell-based; conditions: Kasumi-1 cell line
Experimental: as §1, §2

[3] = tested on: MOLM-13; test: Cellular assay (ATPlite cell viability), MOLM-13; assay type: cell-based; conditions: MOLM-13 cell line
Experimental: as §1, §2

[4] = tested on: MV411; test: Cellular assay (ATPlite cell viability), MV411; assay type: cell-based; conditions: MV411 cell line
Experimental: as §1, §2

[5] = tested on: TF-1; test: Cellular assay (ATPlite cell viability), TF-1; assay type: cell-based; conditions: TF-1 cell line
Experimental: as §1, §2

[6] = biological target: T1, BRD4 (Homo sapiens, UniProt O60885); test: BRD4 IC50 (first BRD4 value listed in Table 2); assay type: binding; conditions: first BRD4 IC50 listed per compound
Experimental: (§3) Assays were performed with minor modifications from the manufacturer's protocol (PerkinElmer, USA). All reagents were diluted in 50 mM HEPES, 150 mM NaCl, 0.1% w/v BSA, and 0.01% w/v Tween^□ 20 at pH 7.5 and allowed to equilibrate to room temperature prior to addition to plates. After addition of Alpha beads to master solutions, all subsequent steps were performed in low light conditions. […] Addition to wells was performed with either a multichannel pipet (for optimization experiments) or a Biotek EL406 liquid handler. After a 1000-rpm spin-down for 1 minute, 100 nL of the solutions of the compounds of the invention from stock plates were added by pin transfer using a Janus Workstation (PerkinElmer, USA). The streptavidin-coated donor beads (25 μg/ml final) were added as with previous solution in a 2x, 10 μL volume. Following this addition, the plates were sealed with foil to block light exposure and to prevent evaporation. The plates were spun down again at 1000 rpm for 1 minute. Next, the plates were incubated in the room with the plate reader (for temperature equilibration) for 1.5 hour prior to reading the assay.

[7] = tested on: 797; test: Cellular assay (ATPlite cell viability), 797; assay type: cell-based; conditions: 797 cell line
Experimental: as §1, §2

[8] = biological target: T2, BRD4.1 (Homo sapiens, UniProt O60885); test: Acetyl-histone binding assay (AlphaScreen), percent inhibition of BRD4.1; conditions: BRD4.1, 2.5 μM compound concentration, in vitro; read-out: % INHIB (at 2.5 uM)
T2 construct: final concentrations of BRD4.1 at 80 nM; His tag (inferred from the Ni-coated acceptor bead)
Experimental: as §3

[9] = biological target: LRRK2 (Homo sapiens, UniProt Q5S007); test: LRRK2 IC50; assay type: biochemical
[10] = biological target: BRDT (Homo sapiens, UniProt Q58F21); test: BRDT IC50; assay type: binding
[11] = biological target: T1, BRD4; test: BRD4 IC50 (second BRD4 value listed in Table 2); assay type: binding; conditions: second BRD4 IC50 listed per compound
[12] = biological target: T1, BRD4; test: BRD4 KD (DiscoveRx); assay type: binding
[13] = biological target: T3, CREBBP (Homo sapiens, UniProt Q92793); test: CREBBP KD (DiscoveRx); assay type: binding
[14] = biological target: T3, CREBBP; test: CREBBP IC50; assay type: binding

Chain of LRRK2 (Q5S007 whole entry): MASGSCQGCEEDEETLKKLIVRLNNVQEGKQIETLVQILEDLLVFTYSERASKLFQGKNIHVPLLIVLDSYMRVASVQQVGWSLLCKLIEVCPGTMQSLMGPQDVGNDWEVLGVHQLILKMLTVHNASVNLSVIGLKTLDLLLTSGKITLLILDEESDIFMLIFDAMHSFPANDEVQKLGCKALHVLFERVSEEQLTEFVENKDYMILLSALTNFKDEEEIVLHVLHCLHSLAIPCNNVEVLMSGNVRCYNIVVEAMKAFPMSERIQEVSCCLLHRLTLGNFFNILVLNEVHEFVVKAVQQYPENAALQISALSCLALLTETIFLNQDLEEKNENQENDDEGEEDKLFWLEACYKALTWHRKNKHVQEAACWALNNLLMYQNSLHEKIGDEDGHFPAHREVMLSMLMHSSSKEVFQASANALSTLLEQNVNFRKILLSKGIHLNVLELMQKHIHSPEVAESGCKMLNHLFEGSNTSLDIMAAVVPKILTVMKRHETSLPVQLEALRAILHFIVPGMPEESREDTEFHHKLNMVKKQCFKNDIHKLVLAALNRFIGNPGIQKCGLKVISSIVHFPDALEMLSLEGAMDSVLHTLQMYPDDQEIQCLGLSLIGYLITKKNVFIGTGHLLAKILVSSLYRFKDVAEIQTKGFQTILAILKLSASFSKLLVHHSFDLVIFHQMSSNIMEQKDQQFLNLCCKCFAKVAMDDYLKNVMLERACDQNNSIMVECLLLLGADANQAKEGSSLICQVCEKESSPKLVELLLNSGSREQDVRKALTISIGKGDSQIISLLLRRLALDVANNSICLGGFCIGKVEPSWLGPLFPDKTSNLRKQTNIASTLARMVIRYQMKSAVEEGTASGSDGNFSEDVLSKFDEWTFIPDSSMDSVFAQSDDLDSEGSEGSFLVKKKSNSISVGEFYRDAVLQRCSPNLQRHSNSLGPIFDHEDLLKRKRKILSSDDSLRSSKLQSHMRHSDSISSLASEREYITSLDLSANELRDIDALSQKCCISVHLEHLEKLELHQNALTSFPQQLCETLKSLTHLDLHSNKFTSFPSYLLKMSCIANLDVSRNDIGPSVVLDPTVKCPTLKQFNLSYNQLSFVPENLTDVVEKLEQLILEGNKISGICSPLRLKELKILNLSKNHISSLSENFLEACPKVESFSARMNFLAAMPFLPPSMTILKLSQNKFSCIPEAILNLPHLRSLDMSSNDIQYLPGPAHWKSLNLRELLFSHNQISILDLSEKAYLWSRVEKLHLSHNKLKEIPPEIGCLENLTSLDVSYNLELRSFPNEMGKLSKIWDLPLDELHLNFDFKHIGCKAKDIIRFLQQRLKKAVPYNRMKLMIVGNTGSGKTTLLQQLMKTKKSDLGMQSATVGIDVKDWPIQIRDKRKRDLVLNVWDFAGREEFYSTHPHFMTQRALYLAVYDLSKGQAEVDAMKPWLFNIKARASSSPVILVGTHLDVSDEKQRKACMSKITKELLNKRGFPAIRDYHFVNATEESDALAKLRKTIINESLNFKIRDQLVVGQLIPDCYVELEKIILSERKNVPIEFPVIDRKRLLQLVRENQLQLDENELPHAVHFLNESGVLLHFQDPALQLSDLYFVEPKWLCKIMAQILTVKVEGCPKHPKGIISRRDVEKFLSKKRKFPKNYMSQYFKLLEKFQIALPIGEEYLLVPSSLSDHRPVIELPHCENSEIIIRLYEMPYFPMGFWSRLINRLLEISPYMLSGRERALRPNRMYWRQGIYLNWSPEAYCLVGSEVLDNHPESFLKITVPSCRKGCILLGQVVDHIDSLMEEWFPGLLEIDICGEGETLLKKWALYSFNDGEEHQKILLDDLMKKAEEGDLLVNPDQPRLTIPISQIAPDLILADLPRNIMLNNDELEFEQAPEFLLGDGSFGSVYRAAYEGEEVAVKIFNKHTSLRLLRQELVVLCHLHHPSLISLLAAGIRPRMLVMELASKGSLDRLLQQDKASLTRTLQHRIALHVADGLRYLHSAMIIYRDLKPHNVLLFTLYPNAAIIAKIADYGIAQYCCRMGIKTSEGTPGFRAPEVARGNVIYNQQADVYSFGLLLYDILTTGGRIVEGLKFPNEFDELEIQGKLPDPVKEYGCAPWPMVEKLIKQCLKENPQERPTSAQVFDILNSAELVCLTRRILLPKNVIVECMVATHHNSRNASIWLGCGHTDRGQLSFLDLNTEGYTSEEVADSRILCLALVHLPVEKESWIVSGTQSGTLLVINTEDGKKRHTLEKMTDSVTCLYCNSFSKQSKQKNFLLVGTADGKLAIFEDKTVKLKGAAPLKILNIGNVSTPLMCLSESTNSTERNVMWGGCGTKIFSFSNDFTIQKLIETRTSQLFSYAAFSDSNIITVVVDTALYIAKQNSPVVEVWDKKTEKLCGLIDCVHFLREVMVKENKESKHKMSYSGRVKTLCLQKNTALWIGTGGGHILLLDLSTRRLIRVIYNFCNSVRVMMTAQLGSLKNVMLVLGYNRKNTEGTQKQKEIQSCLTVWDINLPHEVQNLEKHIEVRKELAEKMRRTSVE
T3 sequence (Q92793 whole entry): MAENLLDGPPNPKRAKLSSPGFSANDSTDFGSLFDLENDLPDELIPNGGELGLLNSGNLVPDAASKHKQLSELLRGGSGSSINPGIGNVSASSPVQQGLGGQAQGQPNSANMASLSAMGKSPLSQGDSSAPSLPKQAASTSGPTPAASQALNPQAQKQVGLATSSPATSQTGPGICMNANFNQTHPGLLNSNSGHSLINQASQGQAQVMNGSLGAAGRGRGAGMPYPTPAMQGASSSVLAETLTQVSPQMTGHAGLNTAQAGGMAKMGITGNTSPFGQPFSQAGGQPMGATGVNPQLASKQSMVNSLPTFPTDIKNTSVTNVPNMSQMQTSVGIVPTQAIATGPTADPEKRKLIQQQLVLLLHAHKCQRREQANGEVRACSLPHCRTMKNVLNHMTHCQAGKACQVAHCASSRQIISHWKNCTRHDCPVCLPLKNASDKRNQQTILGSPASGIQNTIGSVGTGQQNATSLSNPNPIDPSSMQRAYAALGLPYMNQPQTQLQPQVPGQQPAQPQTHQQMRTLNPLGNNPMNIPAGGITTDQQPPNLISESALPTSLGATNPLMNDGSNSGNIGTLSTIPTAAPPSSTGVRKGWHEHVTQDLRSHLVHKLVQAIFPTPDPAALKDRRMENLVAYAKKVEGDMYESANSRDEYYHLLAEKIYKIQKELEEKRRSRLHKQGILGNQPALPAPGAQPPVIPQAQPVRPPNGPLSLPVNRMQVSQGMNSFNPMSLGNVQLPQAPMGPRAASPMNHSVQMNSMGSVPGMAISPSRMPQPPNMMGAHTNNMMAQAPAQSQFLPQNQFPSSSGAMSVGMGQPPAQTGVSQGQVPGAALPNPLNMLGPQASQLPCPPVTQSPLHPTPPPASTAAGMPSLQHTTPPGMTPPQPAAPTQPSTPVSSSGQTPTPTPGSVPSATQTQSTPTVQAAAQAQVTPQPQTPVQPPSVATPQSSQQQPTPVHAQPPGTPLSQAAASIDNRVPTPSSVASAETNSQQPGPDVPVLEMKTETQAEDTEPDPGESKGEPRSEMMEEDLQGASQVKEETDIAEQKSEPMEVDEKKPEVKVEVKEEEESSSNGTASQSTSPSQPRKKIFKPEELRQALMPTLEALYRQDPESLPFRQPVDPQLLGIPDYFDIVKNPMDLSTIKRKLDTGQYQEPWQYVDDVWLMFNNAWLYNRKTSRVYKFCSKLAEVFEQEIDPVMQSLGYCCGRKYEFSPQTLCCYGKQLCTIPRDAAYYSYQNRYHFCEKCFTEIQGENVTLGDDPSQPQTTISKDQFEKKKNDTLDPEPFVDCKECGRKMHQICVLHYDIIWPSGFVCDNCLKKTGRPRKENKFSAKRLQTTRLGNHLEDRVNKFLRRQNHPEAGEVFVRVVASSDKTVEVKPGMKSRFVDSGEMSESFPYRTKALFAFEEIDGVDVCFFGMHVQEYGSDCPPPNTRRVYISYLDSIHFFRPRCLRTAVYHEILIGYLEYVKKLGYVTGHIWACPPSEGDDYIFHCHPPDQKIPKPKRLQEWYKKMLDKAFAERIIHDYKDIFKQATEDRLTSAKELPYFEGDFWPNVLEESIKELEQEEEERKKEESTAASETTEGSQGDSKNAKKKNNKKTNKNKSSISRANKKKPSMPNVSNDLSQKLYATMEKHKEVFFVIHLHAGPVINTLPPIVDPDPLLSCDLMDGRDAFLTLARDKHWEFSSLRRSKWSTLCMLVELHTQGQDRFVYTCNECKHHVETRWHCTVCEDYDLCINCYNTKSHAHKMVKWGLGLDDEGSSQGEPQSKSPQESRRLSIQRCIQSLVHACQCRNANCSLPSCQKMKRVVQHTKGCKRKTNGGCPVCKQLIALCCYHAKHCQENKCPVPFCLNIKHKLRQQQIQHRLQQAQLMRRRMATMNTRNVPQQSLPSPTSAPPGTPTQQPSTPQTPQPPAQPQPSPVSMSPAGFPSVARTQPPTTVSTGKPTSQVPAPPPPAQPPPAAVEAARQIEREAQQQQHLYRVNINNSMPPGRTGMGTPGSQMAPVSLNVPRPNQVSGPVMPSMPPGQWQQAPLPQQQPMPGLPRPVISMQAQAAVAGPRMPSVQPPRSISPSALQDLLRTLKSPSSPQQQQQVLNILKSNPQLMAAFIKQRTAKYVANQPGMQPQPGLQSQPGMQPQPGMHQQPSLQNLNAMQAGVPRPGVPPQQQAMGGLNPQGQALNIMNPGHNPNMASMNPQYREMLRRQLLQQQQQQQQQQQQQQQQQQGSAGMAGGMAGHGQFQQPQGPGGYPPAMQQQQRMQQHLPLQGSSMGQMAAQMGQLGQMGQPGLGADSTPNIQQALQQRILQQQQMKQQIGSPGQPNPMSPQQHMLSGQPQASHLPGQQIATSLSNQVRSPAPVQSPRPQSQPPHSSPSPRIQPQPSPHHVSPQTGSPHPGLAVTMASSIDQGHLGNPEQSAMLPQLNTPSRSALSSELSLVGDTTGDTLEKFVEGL

SMILES	IC50 ([1]; Homo sapiens, NOMO-1) [nM]	IC50 ([2]; Homo sapiens) [nM]	IC50 ([3]; Homo sapiens) [nM]	IC50 ([4]; Homo sapiens, MV4-11) [nM]	IC50 [6] [nM]	IC50 [7] [nM]	inhibition at 2.5 µM [8] [%]	IC50 [10] [nM]	IC50 [11] [nM]	IC50 ([5]; Homo sapiens) [nM]	other results
C[C@@H](Oc1cc(-n2cnc3ccc(CN4CCN(C)CC4)cc32)sc1C(N)=O)c1ccccc1C(F)(F)F [GSK461364, reference compound]	5.91	7.8	6.93	7.1	> 50000	8					TF-1 IC50 ([5]; result in words): poor convergence
CN1C(=O)c2ccccc2N(C)c2nc(Nc3ccc(N4CCC(O)CC4)cc3)ncc21							50.8				
CCOc1cc(N2CCC(O)CC2)ccc1Nc1ncc2c(n1)N(C)c1ccccc1C(=O)N2C							29.5				
COc1cc(C(=O)N2CCC(N3CCN(C)CC3)CC2)ccc1N(C)c1ncc2c(n1)N(C)c1ccccc1C(=O)N2C [Compound 1-284]	8600	1860	4630	2440	1990	7420		5550	2600	6160	IC50 [9]: 4000 nM
CN1C(=O)c2ccccc2N(C)c2nc(Nc3ccc(S(N)(=O)=O)cc3)ncc21 [Compound 2-075]	2500	96	433	252		34		2880	1800	2140	Kd [12]: 180 nM; Kd [13]: 23 nM; IC50 ([6]; unit nm [sic]): 970 nM; IC50 [14]: 431 nM
COc1cc(C(=O)N2CCC(N3CCN(C)CC3)CC2)ccc1Nc1ncc2c(n1)N(C)c1ccccc1C(=O)N2C [drawing 33]							20.5				
CCN1CCN(Cc2ccc(Nc3ncc4c(n3)N(C)c3ccccc3C(=O)N4C)cc2C(F)(F)F)CC1							45.8				
CN1C(=O)c2ccccc2N(C)c2nc(Nc3ccc(C(=O)O)cc3OC3CCCC3)ncc21 [Compound 2-043]	6800	4780	6610	> 10000	732	1790		2730	1510	7100	
COc1cc(N2CCN(C)CC2)ccc1Nc1ncc2c(n1)N(C)c1ccccc1C(=O)N2C							36.1				
CCN(c1ncc2c(n1)N(C)c1ccccc1C(=O)N2C)c1ccc(C(=O)N2CCC(N3CCN(C)CC3)CC2)cc1OC [Compound 2-041]	8300	2360	5740	3480	2.06	7100		9610	5700	7210	IC50 [9]: 3000 nM
Cc1sc2c(c1C)C(c1ccc(Cl)cc1)=N[C@@H](CC(=O)OC(C)(C)C)c1nnc(C)n1-2 [JQ1, reference compound]						92					IC50 [1]: 172 nM; IC50 [2]: 48.8 nM; IC50 [3]: 89.2 nM; IC50 [4]: 65.6 nM; IC50 [5]: 109000 nM
COc1cc(C(=O)N2CCC(N3CCN(C)CC3)CC2)ccc1Nc1ncc2c(n1)N(C)c1ccccc1C(=O)N2C [Compound 1-226]	2000		1270	549		1300				3360	IC50 [9]: 7 nM
